Reference: patent publication US12195427B2, “MASP-2 inhibitors and methods of use” (priority 2018, dated 2025)
Counter-ions that a name gives are not always drawn.

Molecular target: MASP-2 CCP2-SP (Homo sapiens (Human), UniProt O00187)
Assay: MASP-2 co-crystallization, X-ray crystallography and structure analysis (H-bonds, van der Waals contacts);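 as to Ligand-pharmacophore element distance, pharmacophore element C2: distance from averaged pharmacophore element to bound ligand; missing value means element absent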;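 as to Ligand-pharmacophore element distance, pharmacophore element C3: distance from averaged pharmacophore element to bound ligand; missing value means element absent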;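 as to Ligand-pharmacophore element distance, pharmacophore element C4: distance from averaged pharmacophore element to bound ligand; missing value means element absent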;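 as to Ligand-pharmacophore element distance, pharmacophore element C5: distance from averaged pharmacophore element to bound ligand; missing value means element absent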
Parameters: van der Waals contact distance, MASP-2 HIS 483 atom CD2 / van der Waals contact distance, MASP-2 HIS 483 atom NE2 / van der Waals contact distance, SER 654 C to compound atom / van der Waals contact distance, SER 654 O to compound atom / van der Waals contact distance, TRP 655 C to compound atom / van der Waals contact distance, MASP-2 GLY 528 atom CA / van der Waals contact distance TRP 655 atom CZ3 / van der Waals contact distance TRP 655 atom N / van der Waals contact distance TRP 655 atom CE3 / van der Waals contact distance GLY 656 atom C / van der Waals contact distance GLY 656 atom CA / van der Waals contact distance GLY 656 atom O / van der Waals contact distance, MASP-2 TYR 607 atom CD1 / van der Waals contact distance, MASP-2 PRO 606 atom O / d(C3,CA1) / d(CA1,N1)2 / d(H4,O1) / d(H4,O2) / d(O1,O2) / d(CA1,O2) / d(CA6,O1) / d(CA6,O2) / d(CA1,C5) / d(O2,H3) / d(N2,C2) / d(CA5,N2) / d(N2,C4) / d(N2,C6) / d(N2,CA3) / d(N2,O3) / d(O4,H2): unit not given beside the values
Details: for Ligand-pharmacophore element distance, pharmacophore element C2 / Ligand-pharmacophore element distance, pharmacophore element C3 / Ligand-pharmacophore element distance, pharmacophore element C4 / Ligand-pharmacophore element distance, pharmacophore element C5 / Ligand-pharmacophore element distance, pharmacophore element C6 / Ligand-pharmacophore element distance, pharmacophore element C7 / Ligand-pharmacophore element distance, pharmacophore element CA1 / Ligand-pharmacophore element distance, pharmacophore element CA2 / Ligand-pharmacophore element distance, pharmacophore element CA3 / Ligand-pharmacophore element distance, pharmacophore element CA4 / Ligand-pharmacophore element distance, pharmacophore element CA5 / Ligand-pharmacophore element distance, pharmacophore element CA6: Table A4-1; for d(N2,C4) / d(N2,C4)4 / d(N2,CA2) / d(O2,H3) / d(O2,N2): Table A5-2 pharmacophore distance, S3/S4 region; for a(N1, CA1, O1) b): Methyl-amino-pyridine compounds; for a(O1, O2, H3) / a(O1, O2, N2) / a(O2, N2, C4) / a(O2, N2, C4) 2 / a(O2, N2, CA2): Table A6-2 pharmacophore angle; for Pharmacophore torsion angle a(O1, O2, N2, CA2): Table A7-2
Description: This example illustrates the preparation of recombinant MASP-2 protein, based on UniProt O00187, human mannan-binding lectin serine protease 2. Expression constructs for human MASP-2 CCP2-SP and CCP2-SP-6HIS were generated for recombinant expression in E. coli cells.
Typically, crystallization hits were obtained by screening against […] 96-well crystallization reagent kits (GRAS6, GRAS2, Hampton Research; MORPHEUS, Molecular Dimensions; Wizard 1&2 Cryo, Rigaku Reagents) and crystal growth was inspected by optical microscopy. Crystals were used directly or further optimized for X-ray diffraction. Crystals were captured with cryogenic loops and dipped into liquid nitrogen directly or cryoprotected with a 20% glycerol in crystallization formulation before flash-cooling in liquid nitrogen.
Thereafter crystals are transferred once or twice for soaking within the crystallization solution containing the MASP-2 inhibitor.
Crystals were diffracted with synchrotron X-rays of […] and X-ray diffraction datasets were collected at beamlines SSRL BL9-2, BL14-1, BL12-2 as well as ALS sector 5 using Dectris Pilatus and Eiger detectors. Structures were determined by molecular replacement using portions of the structure 1Q3X as search models and partially refined with Buster 2.10.2 or Refmac 5.8. […] When multiple ligand poses were observed, for instance arising from multiple molecules in the asymmetric unit or refined dual poses within the same molecule, only one pose was selected and analyzed.
LigPlot+ calls these ‘nonbonded contacts’ or ‘hydrophobic contacts’. Despite the name, there are atom pairings that include possible H-bonds. Thus, in some instances, the Table A2 also contains H-bond interactions.

[1] = Table A5-1 pharmacophore: distance between elements, S2/S1 region
[2] = Table A7-1, between pharmacophore elements of the bound compound
[3] = between pharmacophore elements of the bound compound

MASP-2 CCP2-SP, sequence (O00187 445-686): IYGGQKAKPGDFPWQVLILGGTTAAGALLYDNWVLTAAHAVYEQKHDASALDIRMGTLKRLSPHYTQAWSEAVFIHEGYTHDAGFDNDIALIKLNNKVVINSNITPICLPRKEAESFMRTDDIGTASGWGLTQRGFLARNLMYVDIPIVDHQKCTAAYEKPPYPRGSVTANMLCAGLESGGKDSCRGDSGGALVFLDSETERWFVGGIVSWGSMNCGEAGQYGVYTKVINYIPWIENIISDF
MASP-2 CCP2-SP, sequence (O00187 364-432 partner): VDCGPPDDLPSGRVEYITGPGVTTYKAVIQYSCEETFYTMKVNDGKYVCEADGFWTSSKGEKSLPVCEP

## Cc1nc(N)ccc1CNC(=O)[C@H](C)NC(=O)[C@H]1C[C@H](Cc2cccc(Cl)c2)CN1.Cl.Cl [1328_4]
  Ligand-pharmacophore element distance, pharmacophore element C2: 0
  Ligand-pharmacophore element distance, pharmacophore element C3: 0.18
  Ligand-pharmacophore element distance, pharmacophore element C4: 1.86
  Ligand-pharmacophore element distance, pharmacophore element C5: 0
  Ligand-pharmacophore element distance, pharmacophore element C6: 0
  Ligand-pharmacophore element distance, pharmacophore element C7: 0
  Ligand-pharmacophore element distance, pharmacophore element CA1: 0.5
  Ligand-pharmacophore element distance, pharmacophore element CA2: 0.3
  Ligand-pharmacophore element distance, pharmacophore element CA3: 0
  Ligand-pharmacophore element distance, pharmacophore element CA4: 0
  Ligand-pharmacophore element distance, pharmacophore element CA5: 0
  Ligand-pharmacophore element distance, pharmacophore element CA6: 0
  d(N2,C4): 7.92
  d(N2,C4)4: 7.92
  d(N2,CA2): 6.17
  d(O2,H3): 4.71
  d(O2,N2): 2.79
  a(O1, O2, H3): 150.66
  a(O1, O2, N2): 142.82
  a(O2, N2, C4): 160.57
  a(O2, N2, C4) 2: 109.36
  a(O2, N2, CA2): 156.25
[1]
  d(C3,CA1): 2.85
  d(CA1,N1)2: 1.37
  d(CA1,O1): 5.05
  d(CA1,O2): 3.83
  d(H4,O1): 4.21
  d(H4,O2): 2.53
  d(O1,O2): 3.71
Table A6-1 pharmacophore angle
  a(C3, CA1, O1): 151.05
  a(CA1, O1, O2): 96.00
  a(O1, O2, H4): 119.12
  a(N1, CA1, O1) b): 173.49
[2]
  Pharmacophore torsion angle a(C3, CA1, O1, H4): 66.00
  Pharmacophore torsion angle a(H4, O1, O2, H3): 44.95
  Pharmacophore torsion angle a(H4, O1, O2, N2): 135.08
  Pharmacophore torsion angle a(N1, CA1, O1, H4): 58.16
  Pharmacophore torsion angle a(O1, H4, O2, CA1): −91.48
[3]
  Pharmacophore torsion angle a(O1, O2, N2, CA2): 128.70

## CC(NC(=O)C1CC(Cc2ccccc2)CN1)C(=O)NCc1cnc2c(c1)c(Cl)cn2C.Cl.Cl (stereo not drawn) [1450_B]
  Ligand-pharmacophore element distance, pharmacophore element C2: 0
  Ligand-pharmacophore element distance, pharmacophore element C3: 0
  Ligand-pharmacophore element distance, pharmacophore element C4: 0
  Ligand-pharmacophore element distance, pharmacophore element C5: 1.67
  Ligand-pharmacophore element distance, pharmacophore element C6: 0
  Ligand-pharmacophore element distance, pharmacophore element C7: 1.3
  Ligand-pharmacophore element distance, pharmacophore element CA1: 0.94
  Ligand-pharmacophore element distance, pharmacophore element CA2: 1.24
  Ligand-pharmacophore element distance, pharmacophore element CA3: 0
  Ligand-pharmacophore element distance, pharmacophore element CA4: 0
  Ligand-pharmacophore element distance, pharmacophore element CA5: 0
  Ligand-pharmacophore element distance, pharmacophore element CA6: 0
  d(N2,CA2): 6.07
  d(O2,H3): 2.32
  d(O2,N2): 2.67
  a(O1, O2, H3): 123.50
  a(O1, O2, N2): 138.89
  a(O2, N2, CA2): 155.81
[1]
  d(CA1,C5): 3.41
  d(CA1,O1): 5.49
  d(CA1,O2): 4.57
  d(CA1,O4): 1.74
  d(H4,O1): 3.14
  d(H4,O2): 3.46
  d(O1,O2): 3.83
Table A6-1 pharmacophore angle
  a(C5, CA1, O1): 150.20
  a(CA1, O1, O2): 98.92
  a(O1, CA1, C7): 139.92
  a(O1, CA1, O4): 66.73
  a(O1, O2, H4): 109.15
[2]
  Pharmacophore torsion angle a(C5, CA1, O1, H4): 13.21
  Pharmacophore torsion angle a(C7, CA1, O1, H4): −150.35
  Pharmacophore torsion angle a(H4, O1, O2, H3): −176.95
  Pharmacophore torsion angle a(H4, O1, O2, N2): 177.59
  Pharmacophore torsion angle a(O1, H4, O2, CA1): −91.88
[3]
  Pharmacophore torsion angle a(O1, O2, N2, CA2): 137.59

## Cc1nc(N)ccc1CNC(=O)[C@H](C)NC(=O)[C@H]1C[C@H](Cc2ccccc2Br)CN1.O=C(O)C(F)(F)F.O=C(O)C(F)(F)F [1372_A]
  Ligand-pharmacophore element distance, pharmacophore element C2: 0
  Ligand-pharmacophore element distance, pharmacophore element C3: 0.09
  Ligand-pharmacophore element distance, pharmacophore element C4: 1.91
  Ligand-pharmacophore element distance, pharmacophore element C5: 0
  Ligand-pharmacophore element distance, pharmacophore element C6: 0
  Ligand-pharmacophore element distance, pharmacophore element C7: 0
  Ligand-pharmacophore element distance, pharmacophore element CA1: 0.55
  Ligand-pharmacophore element distance, pharmacophore element CA2: 0.47
  Ligand-pharmacophore element distance, pharmacophore element CA3: 0
  Ligand-pharmacophore element distance, pharmacophore element CA4: 0
  Ligand-pharmacophore element distance, pharmacophore element CA5: 0
  Ligand-pharmacophore element distance, pharmacophore element CA6: 0
  d(N2,C4): 6.06
  d(N2,C4)4: 6.06
  d(N2,CA2): 5.99
  d(O2,H3): 2.30
  d(O2,N2): 2.66
  a(O1, O2, H3): 137.15
  a(O1, O2, N2): 140.15
  a(O2, N2, C4): 159.60
  a(O2, N2, C4) 2: 127.51
  a(O2, N2, CA2): 155.91
[1]
  d(C3,CA1): 2.85
  d(CA1,N1)2: 1.38
  d(CA1,O1): 4.38
  d(CA1,O2): 3.94
  d(H4,O1): 4.40
  d(H4,O2): 3.88
  d(O1,O2): 3.32
Table A6-1 pharmacophore angle
  a(C3, CA1, O1): 149.88
  a(CA1, O1, O2): 106.33
  a(O1, O2, H4): 133.23
  a(N1, CA1, O1) b): 174.16
[2]
  Pharmacophore torsion angle a(C3, CA1, O1, H4): 25.78
  Pharmacophore torsion angle a(H4, O1, O2, H3): 99.84
  Pharmacophore torsion angle a(H4, O1, O2, N2): 136.36
  Pharmacophore torsion angle a(N1, CA1, O1, H4): 5.73
  Pharmacophore torsion angle a(O1, H4, O2, CA1): −83.68
[3]
  Pharmacophore torsion angle a(O1, O2, N2, CA2): 129.48

## Cc1nc(N)ccc1CNC(=O)[C@H](C)NC(=O)[C@H]1C[C@H](Cc2ccccc2Br)CN1 [compound 1372, (2R,4S)—N—((S)-1-(((6-Amino-2-methylpyridin-3-yl)methyl)amino)-1-oxopropan-2-yl)-4-(2-bromobenzyl)pyrrolidine-2-carboxamide Di-trifluoroacetate salt]
Table A1 (H-Bonds), ASP 627 OD2
  H-bond distance to MASP-2 ASP 627 atom OD2: 3.17
Table A1 (H-Bonds), GLY 656 N
  H-bond distance to MASP-2 GLY 656 atom N: 3.23
Table A1 (H-Bonds), GLY 656 O
  H-bond distance to MASP-2 GLY 656 atom O: 2.81
Table A1 (H-Bonds), SER 628 O
  H-bond distance to MASP-2 SER 628 atom O: 3.18
Table A1 (H-Bonds), SER 654 O
  H-bond distance to MASP-2 SER 654 atom O: 2.97
Table A1 (H-Bonds), SER 657 O
  H-bond distance to MASP-2 SER 657 atom O: 2.87
Table A2-1
  van der Waals contact distance, MASP-2 HIS 483 atom CD2: 3.77
  van der Waals contact distance, MASP-2 HIS 483 atom NE2: 3.67
Table A2-2
  van der Waals contact distance, MASP-2 GLY 528 atom CA: 3.83
Table A2-4
  van der Waals contact distance, MASP-2 TYR 607 atom CD1: 3.77
Table A2-7: SER 628 (CB, O, OG)
  van der Waals contact distance, MASP-2 amino acid atom to compound atom: 3.68
Table A2-11
  van der Waals contact distance, VAL 653 CG1 to compound atom: 3.32
Table A2-12
  van der Waals contact distance, TRP 655 CA to compound atom: 3.48
Table A2-13, MASP-2 TRP 655 CE3, compound atom in line below
  van der Waals contact distance TRP 655 atom CE3: 3.54
Table A2-13, MASP-2 TRP 655 CZ3
  van der Waals contact distance TRP 655 atom CZ3: 3.48
